This note sets out measurements from patent publication US11203577B2, “Sulfonyl-structure-containing triazinone derivatives, their preparation methods and their uses in insect killing and/or bacterium killing” (Nankai University, priority 2017, dated 2021).

Read-outs that look alike come from different tables or passages of the source.

Data set [1] deals with Corn southern leaf blight. Kind of data set: In vitro fungicidal activity, PDA colony diameter. The class given is cell-based. Conditions: 50 mg/kg, inhibition of colony diameter; read-out: Fungicidal activity (%) Corn southern leaf blight.
For data set [2], the system named is bean aphides (Aphis laburni Kaltenbach). The data set is described as follows: Test of insecticidal activity against aphides (leaf immersion, checked after 96 h).
The test system of a further data set is Armyworms. The data set is described as follows: Test of insecticidal activity against armyworms (leaf immersion). As to conditions: 600 mg/kg, 3-4 days.
The subject of data set [3] is Cercospora brown spot of peanut. Kind of data set: In vitro fungicidal activity, PDA colony diameter. The format is cell-based. As to conditions: 96 h, 50 mg/kg, inhibition of colony diameter, read-out: Fungicidal activity (%) Cercospora brown spot of peanut.
The next data set relates to Cucumber fusarium wilt. Kind of data set: In vitro fungicidal activity, PDA colony diameter. The format is cell-based. As to conditions: 96 h, 50 mg/kg, inhibition of colony diameter, read-out: Fungicidal activity (%) Cucumber fusarium wilt.
The test system of a further data set is Wheat head blight. Kind of data set: whole plant or invertebrate. The format is cell-based. Conditions: Triticum aestivum, read-out: Fungicidal activity (%) Wheat head blight.
A further data set has as its system Cotton bollworms. Kind of data set: Test of insecticidal activity against cotton bollworms (pesticide mixed into feedstuff). Conditions: read-out: Mortalities (%) Cotton bollworms.
In another data set the test system is Wheat sheath blight. The data set is described as follows: In vitro fungicidal activity, PDA colony diameter. The class given is cell-based. As to conditions: 50 mg/kg, inhibition of colony diameter; read-out: Fungicidal activity (%) Wheat sheath blight.
The test system of another data set is Sclerotinia rot of colza. Kind of data set: In vitro fungicidal activity, PDA colony diameter. The class given is cell-based. Conditions: 96 h, 50 mg/kg, inhibition of colony diameter, read-out: Fungicidal activity (%) Sclerotinia rot of colza.
In another data set the test system is Rice bakanae disease. The data set is described as follows: In vitro fungicidal activity, PDA colony diameter. The format is cell-based. Conditions: read-out: Fungicidal activity (%) Rice bakanae disease.
The next data set concerns Watermelon anthracnose. The data set is described as follows: In vitro fungicidal activity, PDA colony diameter. The format is cell-based. Conditions: read-out: Fungicidal activity (%) Watermelon anthracnose.
The test system of a further data set is Maize borers. Kind of data set: Test of insecticidal activity against maize borers (leaf immersion). Conditions: read-out: Mortalities (%) Maize borers.
The subject of data set [4] is Capsicum phytophthora blight. The data set is described as follows: In vitro fungicidal activity, PDA colony diameter. The class given is cell-based. As to conditions: 96 h. On the procedure: (§1) Here, the test is described in an example of Alternaria solani; it can be replaced by other fungi.
(§2) In vitro testing method: Alternaria solani is inoculated to a PDA culture medium and cultured for 7 days, a fungus dish with a diameter of […] is prepared on the periphery of the colony with a punch and inoculated to a PDA culture medium that contains pesticide at a concentration of 50 mg/kg and a PDA culture medium that doesn't contain the pesticide, and are cultured for 4 days respectively; then, the colony diameters are measured, and the inhibition percentages of the pesticides are calculated by comparing with the control sample.

Another data set deals with Apple ring rot. Kind of data set: In vitro fungicidal activity, PDA colony diameter. Conditions: inhibition of colony diameter. The class given is cell-based. The method, then: as §1, §2
Another data set deals with Tomato early blight. The data set is described as follows: In vitro fungicidal activity, PDA colony diameter. The format is cell-based, Alternaria solani. As to conditions: 50 mg/kg, inhibition of colony diameter; read-out: Fungicidal activity (%) Tomato early blight.
In data set [5] the test system is mosquito larvae (Culer pipiens pallens). Kind of data set: Test of insecticidal activity against mosquito larvae (checked after 24 h). As to conditions: 24 h, read-out: Mortalities (%) against mosquito larvae.
The next data set has as its system Potato late blight. Kind of data set: microbe, parasite or virus in culture. The format is cell-based. Conditions: Phytophthora infestans, 96 h, read-out: Fungicidal activity (%) Potato late blight.
The next data set has as its system Rice sheath blight. Kind of data set: In vitro fungicidal activity, PDA colony diameter. The format is cell-based. As to conditions: 50 mg/kg, inhibition of colony diameter; read-out: Fungicidal activity (%) Rice sheath blight.
Setting [6] is: Aphis, 96 h, read-out: Mortalities (%) against aphides.
Where [7] appears, read: 50 mg/kg, inhibition of colony diameter.

Protocol for Cotton bollworms: Method of testing against cotton bollworms: the pesticide is mixed into the feedstuff, i.e., 3 mL prepared solution is added into about 27 g freshly prepared feedstuff; thus, required concentration is obtained by diluting by 10 times.

Regarding `CC(=O)Nc1ccc(S(=O)(=O)NN2CC(C)=NNC2=O)cc1` [Ia-24, N-(4-(N-(6-methyl-3-oxo-2,3-dihydro-1,2,4-triazin-4(5H)-yl)sulfamyl)phenyl)acetamide], the inhibition at 50 mg/kg in [1] worked out at 25%; with Wheat head blight, 6.7%; with Wheat sheath blight, 52.3%; in the data set on Rice bakanae disease (setting [7]), 27.8%; with Watermelon anthracnose (setting [7]), 12.5%; with Apple ring rot it was 13.8%. For the same compound, the values for the inhibition at 50 mg/kg in the data set on Tomato early blight and in the data set with Rice sheath blight were 23.8% and 50.8%, respectively. For the same compound, the mortality at 5 mg/kg was found to be 10% in data set [2] (setting [6]) and 45% in data set [5]. The mortality at 10 mg/kg in [2] (setting [6]) was determined as 75%; in data set [5], 100%. In data set [2] (setting [6]), the mortality at 100 mg/kg worked out at 95%. In addition, the results for the mortality at 600 mg/kg (in data set [2] (setting [6]); in the data set with Cotton bollworms; in the data set with Maize borers) were 100%, 50% and 5%, respectively. The “Mortalities (%) Armyworms” value in the data set on Armyworms stood at 5%. Moreover, the inhibition of growth at 50 mg/kg in data set [3] came out at 15.8%; in the data set with Cucumber fusarium wilt, 0%; in the data set with Sclerotinia rot of colza it was 40%; in data set [4], 24.5%; with Potato late blight, 22.2%.
As for `CCS(=O)(=O)N(N1CC(C)=NNC1=O)S(=O)(=O)CC` [Ib-2, n-(ethylsulfonyl)-N-(6-methyl-3-oxo-2,3-dihydro-1,2,4-triazin-4(5H)-yl)-ethylsulfonamide], the inhibition at 50 mg/kg amounted to 16.7% in [1]; 13.3% in the data set on Wheat head blight; 61.4% with Wheat sheath blight; 27.8% in the data set on Rice bakanae disease (setting [7]); 12.5% with Watermelon anthracnose (setting [7]); 58.6% in the data set on Apple ring rot. For the same compound, the inhibition at 50 mg/kg in the data set with Tomato early blight turned out to be 33.3%; in the data set on Rice sheath blight, 27%. Besides, the mortality at 600 mg/kg in data set [2] (setting [6]) came to 85%; in the data set on Cotton bollworms, 25%; in the data set with Maize borers, 5%. The “Mortalities (%) Armyworms” value in the data set on Armyworms stood at 5%. Further, the inhibition of growth at 50 mg/kg turned out to be 15.8% in data set [3]; 10% in the data set with Cucumber fusarium wilt; 48.3% in the data set with Sclerotinia rot of colza; 38.8% in data set [4]; 18.5% in the data set with Potato late blight. Besides, the mortality at 10 mg/kg in data set [5] was 15%.
With `CC1=NNC(=O)N(NS(=O)(=O)c2cn(C)c(C)n2)C1` [Ia-32, 1,2-dimethyl-N-(6-methyl-3-oxo-2,3-dihydro-1,2,4-triazin-4(5H)-yl)-1H-imidazolyl-4-sulfonamide], the inhibition at 50 mg/kg in data set [1] was 7.7%; in the data set on Wheat head blight, 12.5%; in the data set on Wheat sheath blight, 30.9%; in the data set on Rice bakanae disease, 18.8%; with Watermelon anthracnose it was 18.8%; with Apple ring rot it was 43.1%. Also, the results for the inhibition at 50 mg/kg with Tomato early blight and in the data set on Rice sheath blight were 16.1% and 10.5%, respectively. Also, the figures for the mortality at 10 mg/kg in data set [2] (setting [6]) and in data set [5] were 30% and 20%, respectively. The mortality at 100 mg/kg in data set [2] (setting [6]) worked out at 100%. For the same compound, the mortality at 600 mg/kg was 100% in data set [2] (setting [6]), 0% with Cotton bollworms and 0% in the data set on Maize borers. In the data set with Armyworms, the “Mortalities (%) Armyworms” value came to 5%. Also, the inhibition of growth at 50 mg/kg in data set [3] amounted to 26.1%; in the data set on Cucumber fusarium wilt, 8.8%; in the data set with Sclerotinia rot of colza it was 15.8%; in [4], 9.4%; in the data set on Potato late blight, 18.8%.
As to `CC1=NNC(=O)N(NS(=O)(=O)C2CC2)C1` [Ia-5, N-(6-methyl-3-oxo-2,3-dihydro-1,2,4-triazin-4(5H)-yl)-cyclopropylsulfonamide], the inhibition at 50 mg/kg in data set [1] was found to be 18.7%; with Wheat head blight, 10.8%; with Wheat sheath blight, 8.7%; in the data set with Rice bakanae disease (setting [7]) it was 20.7%; in the data set with Watermelon anthracnose (setting [7]), 16.4%; in the data set with Apple ring rot it was 10.8%. For the same compound, the figures for the inhibition at 50 mg/kg with Tomato early blight and in the data set with Rice sheath blight were 14.9% and 19.8%, respectively. The mortality at 10 mg/kg in data set [2] (setting [6]) was determined as 30%; in data set [5], 10%. Moreover, the mortality at 100 mg/kg in data set [2] (setting [6]) is 85%. The mortality at 600 mg/kg came out at 100% in data set [2] (setting [6]), 15% in the data set with Cotton bollworms and 10% with Maize borers. The “Mortalities (%) Armyworms” value with Armyworms stood at 10%. Besides, the inhibition of growth at 50 mg/kg in [3] was 8%; in the data set on Cucumber fusarium wilt, 8.8%; in the data set on Sclerotinia rot of colza, 21%; in [4], 5.6%; in the data set with Potato late blight, 64.5%.
In the case of `COc1ccc(S(=O)(=O)NN2CC(C)=NNC2=O)cc1` [Ia-14, 4-methoxy-N-(6-methyl-3-oxo-2,3-dihydro-1,2,4-triazin-4(5H)-yl)-benzenesulfonamide], the inhibition at 50 mg/kg in [1] was 9.3%; in the data set with Wheat head blight it was 16.2%; in the data set with Wheat sheath blight, 21.7%; in the data set with Rice bakanae disease (setting [7]), 10.3%; with Watermelon anthracnose (setting [7]), 26.2%; with Apple ring rot, 33.8%. Besides, the inhibition at 50 mg/kg amounted to 13.4% with Tomato early blight and 11.6% in the data set with Rice sheath blight. In data set [2] (setting [6]), the mortality at 2.5 mg/kg was determined as 35%. The mortality at 5 mg/kg came to 100% in data set [2] (setting [6]) and 95% in [5]. Also, the mortality at 10 mg/kg in [2] (setting [6]) and in [5] was 100% each time. In data set [2] (setting [6]), the mortality at 100 mg/kg amounted to 100%. Moreover, the mortality at 600 mg/kg was 100% in [2] (setting [6]), 0% in the data set with Cotton bollworms and 0% with Maize borers. In addition, the “Mortalities (%) Armyworms” value with Armyworms was found to be 0%. In addition, the inhibition of growth at 50 mg/kg was 12% in [3]; 8.8% in the data set with Cucumber fusarium wilt; 15.8% in the data set with Sclerotinia rot of colza; 13.9% in data set [4]; 3.1% in the data set on Potato late blight. In addition, the mortality at 2 mg/kg in data set [5] came to 10%.
For `CC1=NNC(=O)N(N(S(C)(=O)=O)S(C)(=O)=O)C1` [Ib-1, N-(6-methyl-3-oxo-2,3-dihydro-1,2,4-triazin-4(5H)-yl)-N-(methylsulfonyl)-methylsulfonylamide], the inhibition at 50 mg/kg in [1] was 12.5%; with Wheat head blight it was 6.7%; in the data set with Wheat sheath blight, 56.8%; in the data set with Rice bakanae disease (setting [7]), 44.4%; with Watermelon anthracnose (setting [7]), 20.8%; in the data set with Apple ring rot, 20.7%. In addition, the values for the inhibition at 50 mg/kg in the data set with Tomato early blight and with Rice sheath blight were 23.8% and 34.9%, respectively. In data set [2] (5 mg/kg), the “insecticidal activity against aphides compared with pymetrozine” value is reported as “equivalent to the insecticidal activity of pymetrozine”. Besides, the mortality at 5 mg/kg in data set [2] (setting [6]) was 20%. The mortality at 10 mg/kg in [2] (setting [6]) turned out to be 100%; in data set [5], 35%. For the same compound, the mortality at 100 mg/kg in [2] (setting [6]) amounted to 100%. Moreover, the mortality at 600 mg/kg in data set [2] (setting [6]) worked out at 100%; in the data set on Cotton bollworms, 30%; in the data set with Maize borers, 10%. The “Mortalities (%) Armyworms” value with Armyworms worked out at 15%. The inhibition of growth at 50 mg/kg stood at 15.8% in data set [3]; 0% in the data set on Cucumber fusarium wilt; 36.7% with Sclerotinia rot of colza; 26.5% in data set [4]; 29.6% with Potato late blight.
